“Also recorded” adds a separate entry of the source. No end group written: not given here.
Legend:
[1] = Enzymatic stability in murine plasma; format: in vitro ADME; settings: 37°C, HPLC separation, MS analysis, percentage from peak areas; for remaining at 2 h / remaining at 4 h / remaining at 8 h: mouse; for remaining at 2 h: 2-h incubation, read-out: Percentage intact peptide remaining (%) 2 h; for remaining at 4 h / Percentage intact peptide remaining (%) 4 h: 4-h incubation; for remaining at 4 h: read-out: Percentage intact peptide remaining (%) 4 h; for remaining at 8 h / Percentage intact peptide remaining (%) 8 h: 8-h incubation; for remaining at 8 h: read-out: Percentage intact peptide remaining (%) 8 h
Procedure: When incubated together with murine plasma, Ac-NT/XN-8-Gln remained 100% intact up to and including 4 h, and over 90% peptide intact over an extended 8-h incubation period (Table 1).

BRIN-BD11 cells = assay: In vitro insulin secretion from BRIN-BD11 cells (radioimmunoassay); format: cell-based; settings: 20 min; for Effect on glucose-stimulated insulin secretion: 16.7 mM glucose, n=8 (Figure 1B); for Effect on GIP-induced insulin secretion: with 10^−7 M GIP, 5.6 mM glucose, n=8 (Figure 1C); for Effect on GLP-1 evoked insulin release: with 10^−7 M GLP-1, 5.6 mM glucose, n=8 (Figure 1D)
Procedure: The in vitro insulin secretory activity of test peptides was examined in BRIN-BD11 cells, cultured and maintained as previously described. For experimentation, BRIN-BD11 cells were seeded in 24-well plates at a cell density of 150000 cells/well, and allowed to attach overnight at 37°C. Following pre-incubation with Krebs–Ringer bicarbonate buffer (KRBB) (pH 7.4) supplemented with 0.5% (w/v) BSA and 1.1 mM glucose (40 min; 37°C), cells were then incubated with test peptides alone (10^−6–10^−12 M), or in combination with either GIP or GLP-1 (10^−7 M), at 5.6 or 16.7 mM glucose, as appropriate for 20 min. […] Aliquots of assay buffer (200 μl) were collected and stored at −20°C prior to assessment of insulin concentrations by an in-house radioimmunoassay. To confirm insulin secretory activity of Ac-NT/XN-8-Gln, pancreatic islets were isolated from lean C57BL/6 mice by collagenase digestion, as described previously and insulin secretion determined as outlined above (16.7 mM glucose), but over a 60-min test incubation period.
Figure 1 Acute effects of acetyl-neurotensin(8-13), xenin-8-Gln, Ac-NT/XN-8-Gln alone and in combination with GIP or GLP-1, on insulin release from BRIN-BD11 cells and isolated mouse islets BRIN-BD11 cells were incubated (20 min) with a range of concentrations (10^−12 to 10^−6 M) of acetyl-neurotensin(8-13), xenin-8-Gln or Ac-NT/XN-8-Gln alone (A,B) or in combination with GIP (C) or GLP-1 (D) in the presence of (A,C,D) 5.6 or (B) 16.7 mM glucose. (E) Murine islets were incubated (60 min) with Ac-NT/XN-8-Gln (10^−8 and 10^−6 M) in the presence 16.7 mM glucose. (A–E) Insulin release was measured using radioimmunoassay. Values represent means ± SEM (n=8 for (A–D) and n=5 for (E)). *P<0.05 and ***P<0.001 compared with respective glucose controls. ^∆P<0.05, ^∆∆P<0.01 and ^∆∆∆P<0.001 compared with respective 10^−7 M GIP or GLP-1 control.

BRIN-BD11 β-cells = assay: β-cell proliferation, Ki-67 immunostaining; format: cell-based; settings: 18 h, 10^−8 and 10^−6 M, n=3–4, vs media control (Figure 2A)
Procedure: BRIN-BD11 β-cells were used to investigate effects of test peptides (10^−8 and 10^−6 M) on β-cell proliferation and protection against apoptosis. GLP-1 was employed as a positive control for all studies. Ki-67 immunostaining was used to assess effects on proliferation. Briefly, cells were seeded on to coverslips (40000 cells per coverslip) and cultured overnight (18 h; 37°C), in the presence of test peptides (10^−8 and 10^−6 M). Cells were then washed with PBS, and fixed using 4% paraformaldehyde. Following antigen retrieval with citrate buffer (90°C for 20 min), tissues were blocked using 1.1% BSA for 30 min. Cells were then incubated with Ki-67 primary antibody (1:500; Abcam, ab15580), followed by Alexa Fluor® 488 secondary antibody (1:400, Invitrogen, A-11008). Coverslips were washed with PBS, mounted on slides for viewing using a fluorescent microscope (Olympus System Microscope) and photographed by DP70 camera adapter system. Proliferation frequency was expressed as percentage of total cells analysed. For analysis of the ability of test peptides (10^−8 and 10^−6 M) to protect against apoptosis, cells were seeded as above, but apoptosis evoked through activation of caspase 3 and 7 activity by a luminogenic, tetrapeptide sequence DEVD Caspase-Glo® 3/7 substrate. Caspase induced cleavage of the substrate was then assessed by an ApoLive-Glow™ Multiplex assay kit, according to the protocol provided by the manufacturer (Promega, Wisconsin, U.S.A.).
(A) Proliferation was measured using Ki-67 immunocytochemistry. (B) Caspase-3/7 activation was detected by luminescence.

isolated mouse islets = assay: Insulin secretion from isolated mouse islets; format: cell-based, C57BL/6 mice; settings: 16.7 mM glucose, 60 min, peptide 10^−8 and 10^−6 M, n=5 (Figure 1E)
Procedure: The in vitro insulin secretory activity of test peptides was examined in BRIN-BD11 cells, cultured and maintained as previously described. For experimentation, BRIN-BD11 cells were seeded in 24-well plates at a cell density of 150000 cells/well, and allowed to attach overnight at 37°C. Following pre-incubation with Krebs–Ringer bicarbonate buffer (KRBB) (pH 7.4) supplemented with 0.5% (w/v) BSA and 1.1 mM glucose (40 min; 37°C), cells were then incubated with test peptides alone (10^−6–10^−12 M), or in combination with either GIP or GLP-1 (10^−7 M), at 5.6 or 16.7 mM glucose, as appropriate for 20 min. […] To confirm insulin secretory activity of Ac-NT/XN-8-Gln, pancreatic islets were isolated from lean C57BL/6 mice by collagenase digestion, as described previously and insulin secretion determined as outlined above (16.7 mM glucose), but over a 60-min test incubation period.
Figure 1 Acute effects of acetyl-neurotensin(8-13), xenin-8-Gln, Ac-NT/XN-8-Gln alone and in combination with GIP or GLP-1, on insulin release from BRIN-BD11 cells and isolated mouse islets BRIN-BD11 cells were incubated (20 min) with a range of concentrations (10^−12 to 10^−6 M) of acetyl-neurotensin(8-13), xenin-8-Gln or Ac-NT/XN-8-Gln alone (A,B) or in combination with GIP (C) or GLP-1 (D) in the presence of (A,C,D) 5.6 or (B) 16.7 mM glucose. […] (A–E) Insulin release was measured using radioimmunoassay. […]

remaining at 2 h [1] [%]	remaining at 4 h [1] [%]	remaining at 8 h [1] [%]	Percentage intact peptide remaining (%) 8 h [1]	Molecule	Effect on glucose-stimulated insulin secretion (BRIN-BD11 cells)	Effect on GIP-induced insulin secretion (BRIN-BD11 cells)	Effect on GLP-1 evoked insulin release (BRIN-BD11 cells)	β-cell proliferation (Ki-67) (BRIN-BD11 β-cells)	Percentage intact peptide remaining (%) 4 h [1]	Insulin release from isolated mouse islets (isolated mouse islets)
98.2	94.4	89.6		CC[C@H](C)[C@H](NC(=O)[C@H](Cc1ccc(O)cc1)NC(=O)[C@@H]1CCCN1C(=O)[C@H](CCCNC(=N)N)NC(=O)[C@H](CCCNC(=N)N)NC(C)=O)C(=O)N[C@@H](CC(C)C)C(=O)O [Acetyl-neurotensin(8-13)]	inhibited	no effect	inhibit	augmented		
100		91.7	over 90%	Ac-RRPYILHPQQPWIL [Ac-NT/XN-8-Gln]		augmented; also recorded: similar, but more prominent, bioactivity profile	perturb	augmented	100%	Prominent (P<0.01) insulinotropic actions
100	98.3		94.1%	HPQQPWIL [Xenin-8-Gln]	retained significant insulinotropic actions	augmented	no impact	devoid of benefits		
				glucagon-like peptide-1 [Native GLP-1]					fully degraded	
